According to patent US4288597A, “1,2-Diacylamino-1,2-di(4-pyridyl)ethanes and process for producing thereof” (Laboratorios Made, S.A., priority 1979, dated 1981):

Key:
[1] = Analgesic effect by oral route (Siegmund technique modified by Koster, 1% acetic acid irritant); type: in vivo; conditions: products 5 mg/kg, dextropropoxyphene = 1
Procedure: (§1) The object of the studies carried out on all the products was to calculate the acute toxicity, expressed in the form of lethal dose 50, and to evaluate the analgesic effect by administering the drugs orally and intraperitoneally.
(§2) The analgesic effect was evaluated according to the technique of Siegmund et al. (Proc. Soc. Exp. Biol. Med. 95, 729, 1957) modified by Koster et al. (Fed. Proc. 18, 412, 1957), a chemical analgesia test which uses 1% acetic acid as an irritant. The drugs under study were administered at the dose of 1 mg/kg and the reference drug at 25 mg/kg. The evaluation was made 30 minutes after the administrations. The results are given in Table B-1, expressing the results in the form of relative potency (F), giving dextropropoxyphene value 1. [formula]
2. ACTIVITY BY ORAL ROUTE
The foregoing procedure was used, with the difference that the dose of the products under study was 5 mg/kg.

[2] = Analgesic effect by intraperitoneal route (Siegmund technique modified by Koster, 1% acetic acid irritant); type: in vivo; conditions: products 1 mg/kg, reference 25 mg/kg, 30 minutes after administration, dextropropoxyphene = 1
Procedure: There is a series of 19 products, with analgesic activity, the effects whereof were tested using dextropropoxyphene as a reference drug.
as §1
1. ACTIVITY BY INTRAPERITONEAL ROUTE
as §2

[3] = Acute toxicity, lethal dose 50 (Litchfield-Wilcoxon), intraperitoneal; conditions: mouse, in vivo, ip, mice, deaths recorded three days after administration
Procedure: as §1
Tests were carried out on I.C.R. Swiss albino mice of both sexes weighing between 20 and 35 grams. The products were administered intraperitoneally,recording the number of dead animals three days after administration of the drugs. The statistical method used for the calculation of lethal dose 50 was the Litchfield-Wilcoxon method.

Compound	Analgesic effect by oral route, relative potency F [1]	Analgesic effect by intraperitoneal route, relative potency F [2]	LD50 at 72 h [3] [mg/kg]
O=C(NC(c1ccncc1)C(NC(=O)c1cccc(Cl)c1)c1ccncc1)c1cccc(Cl)c1 (stereo not shown) [Example 9]	1.05	1.08	> 1300
Cc1ccccc1C(=O)NC(c1ccncc1)C(NC(=O)c1ccccc1C)c1ccncc1 (stereo not shown) [Example 6]	1.67	1.09	> 1600
O=C(NC(c1ccncc1)C(NC(=O)c1ccc([N+](=O)[O-])cc1)c1ccncc1)c1ccc([N+](=O)[O-])cc1 (stereo not shown) [Example 16]	1.25	1.38	> 1600
CCC(=O)O[C@](Cc1ccccc1)(c1ccccc1)[C@H](C)CN(C)C [Dextropropoxyphene, dextropropoxyphene, reference compound]	–	–	140
CCCC(CCC)C(=O)NC(c1ccncc1)C(NC(=O)C(CCC)CCC)c1ccncc1 (stereo not shown) [Example 2]	0.95	1.43	> 1600
CC(C)(C)c1ccc(C(=O)NC(c2ccncc2)C(NC(=O)c2ccc(C(C)(C)C)cc2)c2ccncc2)cc1 (stereo not shown) [Example 17]	1.17	1.11	> 1600
O=C(NC(c1ccncc1)C(NC(=O)c1ccccc1)c1ccncc1)c1ccccc1 (stereo not shown) [Example 3]	1.35	1.21	> 1300
COc1ccc(C(=O)NC(c2ccncc2)C(NC(=O)c2ccc(OC)cc2)c2ccncc2)cc1 (stereo not shown) [Example 14]	1.23	1.09	> 1600
O=C(NC(c1ccncc1)C(NC(=O)c1ccc(Cl)cc1)c1ccncc1)c1ccc(Cl)cc1 (stereo not shown) [Example 8]	1.29	1.58	> 1600
CC(=O)NC(c1ccncc1)C(NC(C)=O)c1ccncc1 (stereo not shown) [Example 1]	0.85	1.01	1120
O=C(NC(c1ccncc1)C(NC(=O)c1ccccc1Cl)c1ccncc1)c1ccccc1Cl (stereo not shown) [Example 10]	1.34	1.37	1060
O=C(Cc1ccccc1)NC(c1ccncc1)C(NC(=O)Cc1ccccc1)c1ccncc1 (stereo not shown) [Example 18]	2.13	0.96	1540
O=C(NC(c1ccncc1)C(NC(=O)c1ccc(-c2ccccc2)cc1)c1ccncc1)c1ccc(-c2ccccc2)cc1 (stereo not shown) [Example 19]	1.13	1.08	> 1600
Cc1cc(C)cc(C(=O)NC(c2ccncc2)C(NC(=O)c2cc(C)cc(C)c2)c2ccncc2)c1 (stereo not shown) [Example 7]	1.17	1.53	> 1600
Cc1cccc(C(=O)NC(c2ccncc2)C(NC(=O)c2cccc(C)c2)c2ccncc2)c1 (stereo not shown) [Example 5]	1.64	1.85	> 1400
O=C(NC(c1ccncc1)C(NC(=O)c1ccc(F)cc1)c1ccncc1)c1ccc(F)cc1 (stereo not shown) [Example 12]	0.81	1.17	1110
O=C(NC(c1ccncc1)C(NC(=O)c1ccc(C(F)(F)F)cc1)c1ccncc1)c1ccc(C(F)(F)F)cc1 (stereo not shown) [Example 13]	1.19	1.38	> 1200
CS(=O)(=O)c1ccc(C(=O)NC(c2ccncc2)C(NC(=O)c2ccc(S(C)(=O)=O)cc2)c2ccncc2)cc1 (stereo not shown) [Example 15]	1.05	1.43	> 2000
O=C(NC(c1ccncc1)C(NC(=O)c1cc(Cl)cc(Cl)c1)c1ccncc1)c1cc(Cl)cc(Cl)c1 (stereo not shown) [Example 11]	1.22	0.84	> 1200
Cc1ccc(C(=O)NC(c2ccncc2)C(NC(=O)c2ccc(C)cc2)c2ccncc2)cc1 (stereo not shown) [Example 4]	1.11	1.04	> 1660
